Measured values taken from patent US7858588B2, “Immunostimulatory oligodeoxynucleic molecules” (Intercell AG, priority 2001, dated 2010).
Entries after “also recorded” stand apart in the source; their conditions may differ.

Columns and labels:
Format in all cases: in vivo, Mice C57BI/6
[1] = test system: melanoma-derived peptide TRP-2181-188 (TRP-2181-188-specific T cells); assay: IFN-γ ELISPOT on draining lymph node cells after footpad injection of TRP-2181-188 peptide with ODN; conditions: for TRP-2181-188-specific immune response (number of IFN-γ-producing cells/1×10^6 lymph node cells) with co-injection of poly-L-arginine: ODN 5 nmol/mouse + TRP-2181-188 100 μg/mouse + pR60 100 μg/mouse; for TRP-2181-188-specific immune response (number of IFN-γ-producing cells/1×10^6 lymph node cells) with co-injection of poly-L-arginine / TRP-2181-188-specific immune response (number of IFN-γ-producing cells/1×10^6 lymph node cells): hind footpads; for TRP-2181-188-specific immune response (number of IFN-γ-producing cells/1×10^6 lymph node cells) / TRP-2181-188-specific immune response (IFN-γ-producing cells), FIG. 7-9: ODN 5 nmol/mouse + TRP-2181-188 100 μg/mouse; for TRP-2181-188-specific immune response (number of IFN-γ-producing cells/1×10^6 lymph node cells): no poly-L-arginine, lymph nodes 4 days later; for TRP-2181-188-specific immune response (IFN-γ-producing cells), FIG. 7-9: groups with and without pR 60, 4 days
Method: (§1) Animals were sacrificed 4 days after injection and popliteal lymph nodes were harvested. Lymph nodes were passed through a 70 μm cell strainer and washed twice with DMEM medium (GIBCO BRL) containing 5% fetal calf serum (FCS, SIGMA chemicals). Cells were adjusted to the appropriate cell number in DMEM/5%/FCS. An IFN-γ ELISPOT assay was carried out in triplicates as described (Miyahira et al., 1995). This method is a widely used procedure allowing the quantification of antigen-specific T cells. Lymphocytes were stimulated ex vivo in triplicates with medium (background-control), TRP-2181-188-peptide, an irrelevant peptide OVA257-264, pR 60, U-ODN13 and Concanavalin A (Con A). Spots representing single IFN-γ producing T cells were counted and the number of background spots was substracted from all samples. The high number of spots detected after the stimulation with Con A (data not shown) indicates a good condition of the used lymphocytes. For each experimental group of mice the number of IFN-γ-producing cells/1×10^6 cells are illustrated in FIG. 1, the standard deviation of ex vivo-stimulated triplicates is given.
as §1, with “U-ODN15” for “U-ODN13”, “5,” for “1,”
as §1, with “U-ODN 16, ODN 20” for “pR 60, U-ODN13”, “6,” for “1,”
Animals were sacrificed 4 days after injection and popliteal lymph nodes were harvested. Lymph nodes were passed through a 70 μm cell strainer and washed twice with DMEM medium (GIBCO BRL) containing 5% fetal calf serum (FCS, SIGMA chemicals). Cells were adjusted to the appropriate cell number in DMEM/5%/FCS. An IFN-γ ELISPOT assay was carried out in triplicates as described (Miyahira et al., 1995). This method is a widely used procedure allowing the quantification of antigen-specific T cells. […]

[2] = test system: ovalbumin-derived peptide OVA257-264; assay: IFN-γ ELISPOT on draining lymph node cells after footpad injection of OVA257-264 peptide with ODN; conditions: ODN 5 nmol/mouse + OVA257-264 300 μg/mouse, no pR60, 4 days
Method: as §1, with “duplicates” for “triplicates”, “OVA257-264 peptide,” for “TRP-2181-188-peptide,”, “TRP-2181-188,” for “OVA257-264,”, “3,” for “1,”

[3] = test system: mouse mastocytoma-derived peptide P1A35-43; assay: IFN-γ ELISPOT on draining lymph node cells after footpad injection of P1A35-43 peptide with ODN
Method: as §1, with “P1A35-43 peptide,” for “TRP-2181-188-peptide,”, “CSP (SYVPSAEQI, SEQ ID NO:18),” for “OVA257-264,”, “U-ODN 13” for “U-ODN13”, “spots/1×10^6” for “IFN-γ-producing cells/1×10^6”, “4,” for “1,”

hhh wdu dhh h [U-ODN 16]
TRP-2181-188-specific immune response (IFN-γ-producing cells), 10mer cocktail ([1]; ODN 10 nmol/mouse + TRP-2181-188 100 μg/mouse, no pR60, compared to peptide alone or with ODN 20, 4 days): strong immune response

tcc atg acu ttc ctg atg ct [U-ODN 13] (TCCATGACUTTCCTGATGCT; chemistry not given here)
TRP-2181-188-specific immune response (number of IFN-γ-producing cells/1×10^6 lymph node cells) with co-injection of poly-L-arginine ([1]; 4 days): strong immune response; also recorded: does not influence this strong response | TRP-2181-188-specific immune response (number of IFN-γ-producing cells/1×10^6 lymph node cells) [1]: strong immune response; also recorded: strongly enhances | TRP-2181-188-specific T cells / immune response compared to CpG-ODN 1668 ([1]; ODN 5 nmol/mouse vs CpG 1668 5 nmol/mouse, each with TRP-2181-188, 4 days): higher number | OVA257-264-specific immune response (IFN-γ-producing cells/1×10^6 lymph node cells) [2]: induces an immune response | P1A35-43-specific immune response with co-injection of poly-L-arginine ([3]; ODN 5 nmol/mouse + P1A35-43 100 μg/mouse + pR60 100 μg/mouse, 4 days): further enhanced | P1A35-43-specific immune response (IFN-γ-producing cells/1×10^6 lymph node cells) ([3]; ODN 5 nmol/mouse + P1A35-43 100 μg/mouse, no pR60, 4 days): strong immune response

uau aua uau aua uau aua uau aua ua (UAUAUAUAUAUAUAUAUAUAUAUAUA; DNA, all phosphorothioate, T or U not given here) [U-ODN 21]
TRP-2181-188-specific immune response (IFN-γ-producing cells), FIG. 7-9 [1]: generation of specific immune responses

uiu iui uiu iui uiu iui uiu iui ug [U-ODN 22]
TRP-2181-188-specific immune response (IFN-γ-producing cells), FIG. 7-9 [1]: generation of specific immune responses

nhh hhh wdu dhh hhh hhh wn [U-ODN 15]
TRP-2181-188-specific immune response (IFN-γ-producing cells) at 10 times less ODN ([1]; ODN 0.5 nmol/mouse + TRP-2181-188 100 μg/mouse, 4 days): strong immune response could be induced | TRP-2181-188-specific immune response (number of IFN-γ-producing cells/1×10^6 lymph node cells) with co-injection of poly-L-arginine ([1]; 4 days): does not influence this strong response; also recorded: strong immune response | TRP-2181-188-specific immune response (number of IFN-γ-producing cells/1×10^6 lymph node cells) [1]: strongly enhances; also recorded: strong immune response

uuu uuu uuu uuu uuu uuu uuu uuu ut (UUUUUUUUUUUUUUUUUUUUUUUUUT; DNA, all phosphorothioate, T or U not given here) [U-ODN 24]
TRP-2181-188-specific immune response (IFN-γ-producing cells), FIG. 7-9 [1]: generation of specific immune responses

tcc atg acu ttc ctg atg ct [U-ODN 13b] (DNA TCCATGACUTTCCTGCTGATGCT; DNA, backbone and methylation of C not given here; further chemistry not fully specified)
TRP-2181-188-specific immune response (number of IFN-γ-producing cells/1×10^6 lymph node cells) with co-injection of poly-L-arginine ([1]; 4 days): only after co-injection of poly-L-arginine a strong peptide-specific immune response is induced; also recorded: only upon co-injection of poly-L-arginine a high immune response was induced
